Test results from PubChem BioAssay (NCI).
Several values for one entry are separate records, joined by “and”; a condition that tells them apart may be missing. Identical values can stand only once.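 Interpolation was linear, between the two tested concentrations surrounding the appropriate level; five concentrations were tested over 48 hours in 96-well plates. Here, GI50 denotes the concentration required for 50% inhibition of growth. At the TGI there is no net growth.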

Columns and labels:
Assay in all cases: DTP human tumour cell line panel, 48 h
[1] = system: LOX IMVI melanoma
[2] = system: HCT-116 colon
[3] = system: CAKI-1 renal
[4] = system: EKVX NSCLC
[5] = system: SK-OV-3 ovarian
[6] = system: SNB-19 CNS
[7] = system: HCC-2998 colon
[8] = system: M14 melanoma
[9] = system: OVCAR-5 ovarian
[10] = system: DU-145 prostate

Structure (SMILES)	TGI [1]	TGI [2] [µM]	TGI [3]	TGI [4]	TGI [5] [µM]	TGI [6]	TGI [7]	TGI [8]	TGI [9] [µM]	GI50 [10]	TGI [10] [µM]	GI50 [1]	GI50 [2] [µM]	GI50 [3]	GI50 [5] [µM]	GI50 [6] [µM]	GI50 [7]	GI50 [8]	GI50 [9]	GI50 [4] [µM]
O=c1cc(-c2ccccc2)nc(/C=C(\O)c2ccncc2)n1-c1ccccc1	> 100 µM	> 100	> 100 µM	> 100 µM	> 100	> 100 µM	> 100 µM	> 100 µM	> 100											
C[n+]1c2ccccc2c(Nc2ccc(NS(=O)(=O)CCCCN=C(N)N)cc2)c2ccc(N)cc21	> 100 µM	> 100	> 100 µM		> 100	> 100 µM	> 100 µM	> 100 µM	> 100	0.163 µM	66.4	1.82 µM	1.49	10.1 µM	2.77	0.444	8.97 µM	4.14 µM	41.8 µM	
COc1ccc2nc(NCN3C(=O)c4ccccc4C3=O)sc2c1	> 100 µM	> 100		> 100 µM	> 100	> 100 µM		> 100 µM	> 100		> 100									
CCCCOC(=O)c1ccc(NC(=O)CCl)cc1	2.35 µM	2.86		7.13 µM	22.6	3.22 µM	32.7 µM	12.7 µM	4.45	1.81 µM	3.26	1.03 µM	1.29		10.5	1.62	15.6 µM	3.07 µM	2.16 µM	2.37
COc1ccc(SC2c3ccc(C)cc3Oc3nc(N)c(C#N)c(N)c32)cc1 (stereo not given)	3.11 µM	3.37		3.2 µM	3.17		3.19 µM	3.41 µM	3.35	1.82 µM	3.21	1.6 µM	1.82		1.78		1.73 µM	1.76 µM	1.74 µM	1.73
c1ccc(Nn2c(CCCCCCCCc3nnc(COc4ccccc4)n3Nc3ccccc3)nnc2COc2ccccc2)cc1	> 300 µM	> 300	59.1 µM and 34.8 µM		> 300	> 300 µM	> 72.6 µM and 186 µM	> 60.1 µM and 50.2 µM	> 300	35 µM and > 300 µM	> 300	5.35 µM and 4.04 µM	51.7	5.11 µM and 2.73 µM	> 300	107	16.2 µM and 15.7 µM	6.24 µM and 4.23 µM	8.56 µM and 10.2 µM	
NC(=O)C(=Cc1ccc(CP(=O)(O)O)cc1)C(N)=O	> 100 µM	> 100	> 100 µM	> 100 µM	> 100	> 100 µM	> 100 µM	> 100 µM	> 100											
Cc1cc([N+](=O)[O-])ccc1NS(=O)(=O)c1cc(Cl)ccc1Cl	13 µM	11.9	> 28.4 µM		8.63	> 100 µM	18 µM	33.4 µM	> 100	5.37 µM	> 100	3.44 µM	2.85	2.54 µM	2.51	3.4	4.28 µM	3.66 µM	5.1 µM	
CN(C)C(=S)/N=c1\ss/c(=N\C(=S)N(C)C)n1-c1ccc(Cl)cc1	> 100 µM	> 100	> 100 µM	> 100 µM	> 100	> 100 µM		> 100 µM	> 100											
NC(CC(=O)Nc1ccc(Cl)cc1)=Nc1ccccc1	> 100 µM	> 100	> 100 µM	> 100 µM	> 100	> 100 µM	> 100 µM	> 100 µM	> 100											
COC(=O)c1ccc(NC(=O)c2cc(OC)c(OC)c(OC)c2)cc1	> 100 µM	> 100		> 100 µM	98.4	> 100 µM	6.67 µM	> 100 µM												
CC(C)N1CCC2(CC1)NNc1ncccc1-n1cccc12	> 100 µM	> 100	> 100 µM	> 100 µM		> 100 µM	> 100 µM	> 100 µM	> 100											
CC(=O)OC(C)(C)/C=C/C(=O)[C@](C)(O)[C@H]1[C@H](O)C[C@@]2(C)[C@@H]3CC=C4[C@@H](C[C@H](O)C(=O)C4(C)C)[C@]3(CO)C(=O)C[C@]12C	0.492 µM and 0.455 µM	10	0.564 µM and 0.66 µM	0.903 µM and 7.31 µM		0.58 µM and 0.559 µM	15.1 µM	4.12 µM	41			0.0999 µM	0.236		0.333	0.213		0.0857 µM	0.73 µM	0.432
CCOC(=O)c1cc2c(cn1)[nH]c1cccc(N)c12	> 100 µM	> 100	> 100 µM			> 100 µM	> 100 µM	> 100 µM	> 100											
Nc1nc(NC2C=C(CO)C(O)C2O)c([N+](=O)[O-])c(=O)[nH]1 (stereo not given)	> 100 µM	> 100	> 100 µM	> 100 µM	> 100	> 100 µM	> 100 µM	> 100 µM	> 100											
O=c1cc(-c2ccccc2)[nH]c2c(Cl)cccc12	> 100 µM	> 100		> 100 µM		> 100 µM	> 100 µM	> 100 µM												
O=CC(Br)C(Br)c1ccccc1 (stereo not given)	1.83 µM	0.523	6.98 µM		30.3	26.2 µM	29.4 µM	4.88 µM	13.2	2.26 µM	5.74	0.665 µM	0.225	2.6 µM	16.6	12.8	15.1 µM	2 µM	4.5 µM	
CCOc1ccccc1N1C(=O)C(=O)C(c2nc3ccccc3o2)/C(=N\N)C1=O (stereo not given)	> 100 µM	> 100	> 100 µM	> 100 µM	> 100	> 100 µM	> 100 µM	> 100 µM	> 100											
